Drawing on ChEMBL document CHEMBL2375330, “Synthesis of pyrazole encompassing 2-pyridone derivatives as antibacterial agents” (Bioorg Med Chem Lett, 2013), this text covers MIC and IC50 for ten compounds.

Converted amounts (≈) assume the structure as drawn.

As usually defined, the IC50 is the concentration that inhibits the measured activity by half. A low value points to inhibition by little substance.

One experiment has as its system Escherichia coli. Briefly: microbe, parasite or virus in culture. To be noted: MTCC 443. The experiment is classed as functional.
Description: Antibacterial activity against Escherichia coli MTCC 443 by broth dilution method
With `N#Cc1c(-c2cccc(Br)c2)c(C#N)c(=O)n(/N=C/c2cn(-c3ccccc3)nc2-c2ccccc2)c1N`, the MIC worked out at 100 µg/mL (≈ 178 µM).

`N#Cc1c(-c2cccc(F)c2)c(C#N)c(=O)n(/N=C/c2cn(-c3ccccc3)nc2-c2ccccc2)c1N`: the MIC is 100 µg/mL (≈ 200 µM).

Turning to `N#Cc1c(-c2ccc(Cl)cc2)c(C#N)c(=O)n(/N=C/c2cn(-c3ccccc3)nc2-c2ccccc2)c1N`, the MIC worked out at 500 µg/mL (≈ 969 µM).

`N#Cc1c(-c2ccccc2Cl)c(C#N)c(=O)n(/N=C/c2cn(-c3ccccc3)nc2-c2ccccc2)c1N` yielded an MIC of 100 µg/mL (≈ 194 µM).

`N#Cc1c(-c2ccccc2F)c(C#N)c(=O)n(/N=C/c2cn(-c3ccccc3)nc2-c2ccccc2)c1N`: the MIC came out at 250 µg/mL (≈ 500 µM).

The compound `N#Cc1c(-c2ccccc2Br)c(C#N)c(=O)n(/N=C/c2cn(-c3ccccc3)nc2-c2ccccc2)c1N` displayed an MIC of 100 µg/mL (≈ 178 µM).

In turn, `N#Cc1c(-c2cccc([N+](=O)[O-])c2)c(C#N)c(=O)n(/N=C/c2cn(-c3ccccc3)nc2-c2ccccc2)c1N` showed an MIC of 100 µg/mL (≈ 190 µM).

The compound `N#Cc1c(-c2cccc(Cl)c2)c(C#N)c(=O)n(/N=C/c2cn(-c3ccccc3)nc2-c2ccccc2)c1N` yielded an MIC of 50 µg/mL (≈ 96.9 µM).

On to `N#Cc1c(-c2ccc([N+](=O)[O-])cc2)c(C#N)c(=O)n(/N=C/c2cn(-c3ccccc3)nc2-c2ccccc2)c1N`, for which the MIC was determined as 12.5 µg/mL (≈ 23.7 µM).

Consider `N#Cc1c(-c2ccccc2O)c(C#N)c(=O)n(/N=C/c2cn(-c3ccccc3)nc2-c2ccccc2)c1N`, for which the MIC was 500 µg/mL (≈ 1000 µM).

The subject of the next experiment is HeLa. As to the kind of experiment: Cytotoxicity against human HeLa cells by MTT assay. The experiment is classed as cell-based.
Conditions: not given
A general note: Tetrazolium dyes change colour on reduction, which living cells bring about.
In turn, `N#Cc1c(-c2cccc(Br)c2)c(C#N)c(=O)n(/N=C/c2cn(-c3ccccc3)nc2-c2ccccc2)c1N` yielded a half-inhibitory concentration (IC50) greater than 200 µg/mL.

The compound `N#Cc1c(-c2cccc(F)c2)c(C#N)c(=O)n(/N=C/c2cn(-c3ccccc3)nc2-c2ccccc2)c1N` had an IC50 greater than 200 µg/mL.

As to `N#Cc1c(-c2ccc(Cl)cc2)c(C#N)c(=O)n(/N=C/c2cn(-c3ccccc3)nc2-c2ccccc2)c1N`, the IC50 is greater than 200 µg/mL.

In turn, `N#Cc1c(-c2ccccc2Cl)c(C#N)c(=O)n(/N=C/c2cn(-c3ccccc3)nc2-c2ccccc2)c1N` displayed an IC50 greater than 200 µg/mL.

The compound `N#Cc1c(-c2ccccc2F)c(C#N)c(=O)n(/N=C/c2cn(-c3ccccc3)nc2-c2ccccc2)c1N` gave a concentration for half-maximal inhibition (IC50) greater than 200 µg/mL.

In the case of `N#Cc1c(-c2ccccc2Br)c(C#N)c(=O)n(/N=C/c2cn(-c3ccccc3)nc2-c2ccccc2)c1N`, the IC50 is greater than 200 µg/mL.

Compound `N#Cc1c(-c2cccc([N+](=O)[O-])c2)c(C#N)c(=O)n(/N=C/c2cn(-c3ccccc3)nc2-c2ccccc2)c1N` came in with an IC50 greater than 200 µg/mL.

`N#Cc1c(-c2cccc(Cl)c2)c(C#N)c(=O)n(/N=C/c2cn(-c3ccccc3)nc2-c2ccccc2)c1N` displayed an IC50 greater than 200 µg/mL.

As to `N#Cc1c(-c2ccc([N+](=O)[O-])cc2)c(C#N)c(=O)n(/N=C/c2cn(-c3ccccc3)nc2-c2ccccc2)c1N`, the half-maximal inhibitory concentration (IC50) is greater than 200 µg/mL.

In the case of `N#Cc1c(-c2ccccc2O)c(C#N)c(=O)n(/N=C/c2cn(-c3ccccc3)nc2-c2ccccc2)c1N`, the concentration for half-maximal inhibition (IC50) was greater than 200 µg/mL.

The test system of a further experiment is Streptococcus pyogenes. As to the kind of experiment: microbe, parasite or virus in culture. Type of experiment: functional. To be noted: MTCC 442.
Description: Antibacterial activity against Streptococcus pyogenes MTCC 442 by broth dilution method
Turning to `N#Cc1c(-c2cccc(Br)c2)c(C#N)c(=O)n(/N=C/c2cn(-c3ccccc3)nc2-c2ccccc2)c1N`, the MIC stood at 500 µg/mL (≈ 892 µM).

With `N#Cc1c(-c2cccc(F)c2)c(C#N)c(=O)n(/N=C/c2cn(-c3ccccc3)nc2-c2ccccc2)c1N`, the MIC came out at 50 µg/mL (≈ 100 µM).

In the case of `N#Cc1c(-c2ccc(Cl)cc2)c(C#N)c(=O)n(/N=C/c2cn(-c3ccccc3)nc2-c2ccccc2)c1N`, the MIC was 12.5 µg/mL (≈ 24.2 µM).

Take `N#Cc1c(-c2ccccc2Cl)c(C#N)c(=O)n(/N=C/c2cn(-c3ccccc3)nc2-c2ccccc2)c1N`: the MIC is 100 µg/mL (≈ 194 µM).

For `N#Cc1c(-c2ccccc2F)c(C#N)c(=O)n(/N=C/c2cn(-c3ccccc3)nc2-c2ccccc2)c1N`, the MIC amounted to 25 µg/mL (≈ 50 µM).

`N#Cc1c(-c2ccccc2Br)c(C#N)c(=O)n(/N=C/c2cn(-c3ccccc3)nc2-c2ccccc2)c1N` displayed an MIC of 250 µg/mL (≈ 446 µM).

Regarding `N#Cc1c(-c2cccc([N+](=O)[O-])c2)c(C#N)c(=O)n(/N=C/c2cn(-c3ccccc3)nc2-c2ccccc2)c1N`, the MIC amounted to 50 µg/mL (≈ 95 µM).

`N#Cc1c(-c2cccc(Cl)c2)c(C#N)c(=O)n(/N=C/c2cn(-c3ccccc3)nc2-c2ccccc2)c1N`: the MIC came to 100 µg/mL (≈ 194 µM).

Regarding `N#Cc1c(-c2ccc([N+](=O)[O-])cc2)c(C#N)c(=O)n(/N=C/c2cn(-c3ccccc3)nc2-c2ccccc2)c1N`, the MIC is 12.5 µg/mL (≈ 23.7 µM).

Regarding `N#Cc1c(-c2ccccc2O)c(C#N)c(=O)n(/N=C/c2cn(-c3ccccc3)nc2-c2ccccc2)c1N`, the MIC was found to be 250 µg/mL (≈ 502 µM).

In another experiment the test system is Pseudomonas aeruginosa. As to the kind of experiment: microbe, parasite or virus in culture. Type of experiment: functional. As to conditions: MTCC 1688.
Description: Antibacterial activity against Pseudomonas aeruginosa MTCC 1688 by broth dilution method
The compound `N#Cc1c(-c2cccc(Br)c2)c(C#N)c(=O)n(/N=C/c2cn(-c3ccccc3)nc2-c2ccccc2)c1N` returned an MIC of 250 µg/mL (≈ 446 µM).

On to `N#Cc1c(-c2cccc(F)c2)c(C#N)c(=O)n(/N=C/c2cn(-c3ccccc3)nc2-c2ccccc2)c1N`, for which the MIC turned out to be 50 µg/mL (≈ 100 µM).

In turn, `N#Cc1c(-c2ccc(Cl)cc2)c(C#N)c(=O)n(/N=C/c2cn(-c3ccccc3)nc2-c2ccccc2)c1N` returned an MIC of 500 µg/mL (≈ 969 µM).

`N#Cc1c(-c2ccccc2Cl)c(C#N)c(=O)n(/N=C/c2cn(-c3ccccc3)nc2-c2ccccc2)c1N` displayed an MIC of 100 µg/mL (≈ 194 µM).

In the case of `N#Cc1c(-c2ccccc2F)c(C#N)c(=O)n(/N=C/c2cn(-c3ccccc3)nc2-c2ccccc2)c1N`, the MIC was 50 µg/mL (≈ 100 µM).

As to `N#Cc1c(-c2ccccc2Br)c(C#N)c(=O)n(/N=C/c2cn(-c3ccccc3)nc2-c2ccccc2)c1N`, the MIC came out at 250 µg/mL (≈ 446 µM).

In turn, `N#Cc1c(-c2cccc([N+](=O)[O-])c2)c(C#N)c(=O)n(/N=C/c2cn(-c3ccccc3)nc2-c2ccccc2)c1N` yielded an MIC of 100 µg/mL (≈ 190 µM).

In turn, `N#Cc1c(-c2cccc(Cl)c2)c(C#N)c(=O)n(/N=C/c2cn(-c3ccccc3)nc2-c2ccccc2)c1N` returned an MIC of 250 µg/mL (≈ 485 µM).

In turn, `N#Cc1c(-c2ccc([N+](=O)[O-])cc2)c(C#N)c(=O)n(/N=C/c2cn(-c3ccccc3)nc2-c2ccccc2)c1N` came in with an MIC of 25 µg/mL (≈ 47.5 µM).

On to `N#Cc1c(-c2ccccc2O)c(C#N)c(=O)n(/N=C/c2cn(-c3ccccc3)nc2-c2ccccc2)c1N`, for which the MIC is 500 µg/mL (≈ 1000 µM).

Another experiment relates to Staphylococcus aureus. As to the kind of experiment: Antibacterial activity against Staphylococcus aureus MTCC 96 by broth dilution method.
Conditions: not given
The experiment is classed as functional. On the technique in general: Broth dilution looks for growth in wells or tubes with falling amounts of substance.
`N#Cc1c(-c2cccc(Br)c2)c(C#N)c(=O)n(/N=C/c2cn(-c3ccccc3)nc2-c2ccccc2)c1N` displayed an MIC of 250 µg/mL (≈ 446 µM).

Compound `N#Cc1c(-c2cccc(F)c2)c(C#N)c(=O)n(/N=C/c2cn(-c3ccccc3)nc2-c2ccccc2)c1N` came in with an MIC of 50 µg/mL (≈ 100 µM).

In the case of `N#Cc1c(-c2ccc(Cl)cc2)c(C#N)c(=O)n(/N=C/c2cn(-c3ccccc3)nc2-c2ccccc2)c1N`, the MIC amounted to 100 µg/mL (≈ 194 µM).

Regarding `N#Cc1c(-c2ccccc2Cl)c(C#N)c(=O)n(/N=C/c2cn(-c3ccccc3)nc2-c2ccccc2)c1N`, the MIC was 100 µg/mL (≈ 194 µM).

The compound `N#Cc1c(-c2ccccc2F)c(C#N)c(=O)n(/N=C/c2cn(-c3ccccc3)nc2-c2ccccc2)c1N` yielded an MIC of 25 µg/mL (≈ 50 µM).

For the compound `N#Cc1c(-c2ccccc2Br)c(C#N)c(=O)n(/N=C/c2cn(-c3ccccc3)nc2-c2ccccc2)c1N`, the MIC was found to be 12.5 µg/mL (≈ 22.3 µM).

Take `N#Cc1c(-c2cccc([N+](=O)[O-])c2)c(C#N)c(=O)n(/N=C/c2cn(-c3ccccc3)nc2-c2ccccc2)c1N`: the MIC stood at 250 µg/mL (≈ 475 µM).

On to `N#Cc1c(-c2cccc(Cl)c2)c(C#N)c(=O)n(/N=C/c2cn(-c3ccccc3)nc2-c2ccccc2)c1N`, for which the MIC was found to be 500 µg/mL (≈ 969 µM).

In turn, `N#Cc1c(-c2ccc([N+](=O)[O-])cc2)c(C#N)c(=O)n(/N=C/c2cn(-c3ccccc3)nc2-c2ccccc2)c1N` came in with an MIC of 50 µg/mL (≈ 95 µM).

`N#Cc1c(-c2ccccc2O)c(C#N)c(=O)n(/N=C/c2cn(-c3ccccc3)nc2-c2ccccc2)c1N` registered an MIC of 500 µg/mL (≈ 1000 µM).

A further experiment has as its system NIH3T3. Briefly: Cytotoxicity against mouse NIH/3T3 cells by MTT assay. The experiment is classed as cell-based.
Conditions: not given
In the case of `N#Cc1c(-c2cccc(Br)c2)c(C#N)c(=O)n(/N=C/c2cn(-c3ccccc3)nc2-c2ccccc2)c1N`, half-maximal inhibition (IC50) required 42 µg/mL (≈ 74.9 µM).

With `N#Cc1c(-c2cccc(F)c2)c(C#N)c(=O)n(/N=C/c2cn(-c3ccccc3)nc2-c2ccccc2)c1N`, the IC50 amounted to 154 µg/mL (≈ 308 µM).

On to `N#Cc1c(-c2ccc(Cl)cc2)c(C#N)c(=O)n(/N=C/c2cn(-c3ccccc3)nc2-c2ccccc2)c1N`, for which the IC50 was determined as 64 µg/mL (≈ 124 µM).

As for `N#Cc1c(-c2ccccc2Cl)c(C#N)c(=O)n(/N=C/c2cn(-c3ccccc3)nc2-c2ccccc2)c1N`, the midpoint of inhibition, the IC50, lay at 84 µg/mL (≈ 163 µM).

`N#Cc1c(-c2ccccc2F)c(C#N)c(=O)n(/N=C/c2cn(-c3ccccc3)nc2-c2ccccc2)c1N`: the IC50 was greater than 200 µg/mL.

In turn, `N#Cc1c(-c2ccccc2Br)c(C#N)c(=O)n(/N=C/c2cn(-c3ccccc3)nc2-c2ccccc2)c1N` gave an IC50 of 174 µg/mL (≈ 310 µM).

`N#Cc1c(-c2cccc([N+](=O)[O-])c2)c(C#N)c(=O)n(/N=C/c2cn(-c3ccccc3)nc2-c2ccccc2)c1N` gave an IC50 of 124 µg/mL (≈ 236 µM).

Compound `N#Cc1c(-c2cccc(Cl)c2)c(C#N)c(=O)n(/N=C/c2cn(-c3ccccc3)nc2-c2ccccc2)c1N` yielded a half-maximal inhibitory concentration (IC50) of 52 µg/mL (≈ 101 µM).

The compound `N#Cc1c(-c2ccc([N+](=O)[O-])cc2)c(C#N)c(=O)n(/N=C/c2cn(-c3ccccc3)nc2-c2ccccc2)c1N` displayed an IC50 of 84 µg/mL (≈ 160 µM).

In turn, `N#Cc1c(-c2ccccc2O)c(C#N)c(=O)n(/N=C/c2cn(-c3ccccc3)nc2-c2ccccc2)c1N` yielded an IC50 of 162 µg/mL (≈ 326 µM).
